Columns and labels:
[1] = Remeasurement by XRPD after storage at ambient conditions; assay type: physicochemical
Procedure: For each experiment, the anti-solvent was added to each solvent vial, with a solvent to anti-solvent ratio of 1:0.25. In the cases where no precipitation occurred, this ratio was increased to 1:1, and if again no precipitation occurred the ratio was increased to 1:4, with a waiting time of 60 minutes between the additions (up to the third addition) and 35 minutes between the third addition and fourth addition. When no crystallization occurred or not enough solids precipitated for separation, samples were kept at 5° C. for 17 hours. The precipitated solids were separated from the liquids by centrifugation and decantation. When decantation could not be applied, the liquid was carefully removed using Pasteur's pipettes. The solids were dried at 200 mbar for 17 hours and analyzed by XRPD and digital imaging. In the cases where no precipitation occurred, the solvents were evaporated at 200 mbar for 17 hours prior to lowering the vacuum to 5 mbar. All obtained solids were analyzed by XRPD and digital imaging. The measuring plates containing the final solid were stored at ambient temperature for 5 weeks. The solid form was assessed again by XRPD. The arrows in Table 18 indicate if the form changed during storage.
A total of 68 slurry experiments were performed with brigatinib both at room temperature (20° C.) and 40° C., using 34 solvents. In all cases, a solvent volume of 250 μL was used. The slurries were stirred for two weeks. At the end of the slurry time, the vials were centrifuged and solids and mother liquids separated. The solids were analyzed wet and dry by XRPD and digital imaging. The measuring plates were then stored at ambient conditions for 3-4 weeks and another XRPD was obtained of the solid, any form change is shown by an arrow.
After completion of the cycling program, the solids were separated from the mother liquids by centrifugation, dried under 200 mbar for 48 hours (2-ethoxyethanol for 283 hours) and analyzed by XRPD and digital imaging. For the applied crystallization conditions and corresponding obtained solid forms, see Table 24. Solid form (or mixture) following the arrow (→) was obtained upon remeasurement by XRPD after storage of the measuring plates at ambient conditions for 5 weeks.
In Table 27, the occurrence of solid forms of brigatinib is given, together with the crystallization methods from which they crystallized and the related solvents. The table provides the results of over 600 experiments with solid forms measured by XRPD wet and/or dry (wet and dry count as separate experiments). In eight cases, no form assignment was made due to low yield. The solid form(s) following the arrow was/were obtained upon remeasurement by XRPD after storage of the measuring plates at ambient conditions for several weeks (2-5 weeks).

Variable humidity XRPD = assay type: physicochemical; settings: 30° C.
Procedure: The temperature variation rate was 10° C./min.
The relative humidity was increased from the starting amount, brought up to the maximum, then dried back to the minimum value. The data collection time was 41 min at each step, time starting after equilibration of the relative humidity.
The peaks shifts were reversible at RH of about 30%. A sample of Form A was then exposed to 80% RH for 15 h. The peaks shifts had occurred after 90 min, and the extent of the shifts remained constant throughout the exposure at 80% RH for 15 h. Upon return to 10% RH, the peaks shifted to their original position. To investigate the amount of water adsorbed, a new sample of Form A was exposed for 2 h at 80% and a TGMS of this sample was measured.
For Form B, the relative humidity was measured at 30° C. The RH % values measured were 10, 30, 50, 60, 65, 70, 75, and 80%. […] At 80% RH the conversion to Form C was completed. Upon desorption, Form C dehydrates to Form B, starting at about 30% RH. At 10% RH the conversion to Form B was completed.
For Form C, a hydrate, the relative humidity was measured at 30° C. The experiment was performed starting at the maximum RH and dehydrated, then rehydrated back up to the maximum value. The RH % values measured were 10, 15, 20, 25, 30, 35, 40, 60, and 80%. Upon desorption, Form C dehydrated to Form B, starting at about 25% RH. At 10% RH, the conversion to Form B was complete. Upon sorption, Form B converted to Form C, starting at about 60% RH. At 80% RH the conversion to Form C was complete. The results are consistent with the corresponding experiments of Form B.
For Form D, a hydrate, the relative humidity was measured at 30° C. The experiment was performed starting at the maximum RH and dehydrated, then rehydrated back up to the maximum value. The RH % values measured were 10, 15, 20, 25, 30, 35, 40, 60, and 80%. […] Form C dehydrated to Form B, starting at about 20% RH. At 10% RH, the conversion to Form B was complete. Upon sorption, Form B converted to Form C, starting at about 40% RH. At 80% RH, the conversion to Form C was complete.

[2] = Dehydration of Forms C and D (drying); assay type: physicochemical
Procedure: In Table 25, a list of drying conditions for Form C are presented together with the final solid form.
In Table 26, a list of drying processes of Form D are presented. Form D under 5 mbar pressure and at 60° C. led to the formation of Form B after 24 h. In some instances, small quantities of Form C were visible on the XRPD patterns, even after 5 days of drying. This observation could be attributed to different particle morphology (fine particles vs. agglomerates/aggregates). […] In general, depending on the time and pressure, Forms B and C occur.

[3] = for Temperature at which (partial) conversion to Form A was observed / Temperature at which conversion to Form A was complete: sample started as the labelled form; for Temperature of dehydration to anhydrous Form B / Temperature of solid-solid transition to Form A: ambient humidity, increasing temperature; for Temperature of solid-solid transition to Form A: not reversible
Procedure: High resolution X-ray powder diffraction patterns disclosed herein were collected on a D8 Advance system in the Brag-Brentano geometry equipped with LynxEye solid state detector. The radiation used for collecting the data was CuKα1 (λ=1.54056 Å) monochromatized by germanium crystal. The patterns were collected in the range of 4-41.5°2θ, with a step in the range of 0.016 °2θ without further processing. All patterns were taken at room temperature, approximately 295 K. The material was placed in a boron glass capillary of 0.3 mm diameter. For variable humidity and variable temperature experiments disclosed herein, an ANSYCO HT chamber was used. The material was placed on a fixed sample holder that was mounted inside the chamber. The humidity was applied locally and varied from 10% to 80% (dew point). The temperature variation rate was 10° C./min.
Data was collected for Forms A, B, C, and D almost immediately after reaching the target temperature (within approximately 10 min).
For Form A, the temperatures used in the experiment were 25, 40, 60, 100, 120, 140, 150, 160, 170, 180, 190, and 200° C. Data collection lasted 20 min per temperature and the stabilization time in between was 10 min.
For Form B, the temperatures used in the experiment were 25, 40, 60, 100, 120, 140, 150, 155, 160, 165, 170, 180, and 190° C. Data collection lasted 45 min per temperature and the stabilization time in between was 10 min.
For Form C, the temperatures used in the experiment were 25, 40, 60, 70, 80, 100, 120, 140, 150, 155, 160, 165, 170, 175, 180, 190, and 200° C. Data collection lasted 40 min per temperature and the stabilization time in between was 10 min.
For Form D, the temperatures used in the experiment were 25, 35, 45, 55, 65, 75, 85, 100, 120, 140, 150, 155, 160, 165, 170, 175, 180, 190, and 200° C. Data collection lasted 10 min for temperatures 25-85° C. with a stabilization time of 1 min, and 40 min for temperatures 100-25° C. with a stabilization time of 10 min.

[4] = Vapor diffusion onto solids experiments; assay type: physicochemical; settings: room temperature, two weeks
Procedure: For the 34 vapor diffusion onto solids experiments, amorphous brigatinib was prepared by grinding the starting material for 4 hours. The vials containing the amorphous brigatinib were left open and placed in closed 40 mL vials containing 2 mL of solvent (see Table 21). The amorphous brigatinib was exposed to solvent vapors at room temperature for two weeks. At the end of the experiment time, the solids were harvested wet and dry and analyzed by XRPD and digital imaging. For the applied crystallization conditions and corresponding obtained solid forms see Table 22.

[5] = sample started as the labelled form

COc1cc(N2CCC(N3CCN(C)CC3)CC2)ccc1Nc1ncc(Cl)c(Nc2ccccc2P(C)(C)=O)n1 [A+L, brigatinib]
Solid form after storage (XRPD) ([1]; mixtures A+L, ambient conditions for 3 weeks): still a mixture of A+L

COc1cc(N2CCC(N3CCN(C)CC3)CC2)ccc1Nc1ncc(Cl)c(Nc2ccccc2P(C)(C)=O)n1 [Form C, brigatinib]
RH at which Form B starts to convert to hydrated Form C (sorption) (Variable humidity XRPD; [5]): about 60 % RH
RH at which conversion to Form B was complete (desorption) (Variable humidity XRPD; [5]): 10 % RH
RH at which conversion to Form C was complete (sorption) (Variable humidity XRPD; [5]): 80 % RH
final solid form after drying ([2]; 30° C., 1.5 h, ambient pressure): appears to be stable
final solid form after drying ([2]; 40° C., 1 h, ambient pressure): converted to Form B
Temperatures at which the form is unstable ([3]; VT-XRPD): higher than 25 °C
Temperature at which (partial) conversion to Form A was observed ([3]; VT-XRPD): 120 °C
Temperature at which conversion to Form A was complete ([3]; VT-XRPD): 155 °C
Temperature of dehydration to anhydrous Form B [3]: about 40 °C
Temperature of solid-solid transition to Form A [3]: about 150 °C

COc1cc(N2CCC(N3CCN(C)CC3)CC2)ccc1Nc1ncc(Cl)c(Nc2ccccc2P(C)(C)=O)n1 [Form D, brigatinib]
RH at which Form B starts to convert to hydrated Form C (sorption) (Variable humidity XRPD; [5]): about 40 % RH
RH at which Form C starts to dehydrate to Form B (desorption) (Variable humidity XRPD; [5]): about 20 % RH
RH at which conversion to Form B was complete (desorption) (Variable humidity XRPD; [5]): 10 % RH
RH at which conversion to Form C was complete (sorption) (Variable humidity XRPD; [5]): 80 % RH
Solid form at first measurements (Variable humidity XRPD; 80% RH, freshly prepared Form D): already partially transformed to Form C
final solid form after drying ([2]; 5 mbar, 60° C., 24 h): Form B
final solid form after drying ([2]; 50 mbar, 60° C., 86 h): mixture of Forms B+C
final solid form after drying ([2]; 50 mbar, 60° C., 110 h): Form B
final solid form after drying ([2]; 15 h at 60° C., 5 mbar): C + D
final solid form after drying ([2]; 20 h (RT), 5 mbar): B + C
final solid form after drying ([2]; 20 h at 60° C., 5 mbar): B + C
final solid form after drying ([2]; 28 h at 60° C., 5 mbar): B + C
final solid form after drying ([2]; 65 h at 60° C., 50 mbar): B + C
final solid form after drying ([2]; 86 h at 60° C., 50 mbar): B + C
final solid form after drying ([2]; 5 days at 60° C., 5 mbar): B + C
final solid form after drying ([2]; 8 days, closed vial at RT, ambient pressure): B + C
Temperature at which Form D had converted (partially) to hydrated Form C ([3]; VT-XRPD): 35 °C
Temperature at which Form D had converted to dehydrated Form B ([3]; VT-XRPD): 45 °C
Temperatures at which the form is unstable ([3]; VT-XRPD): higher than 25 °C
Temperature at which (partial) conversion to Form A was observed ([3]; VT-XRPD): 120 °C
Temperature at which conversion to Form A was complete ([3]; VT-XRPD): 150 °C
Temperature of dehydration to anhydrous Form B [3]: about 40 °C
Temperature of solid-solid transition to Form A [3]: about 150 °C

COc1cc(N2CCC(N3CCN(C)CC3)CC2)ccc1Nc1ncc(Cl)c(Nc2ccccc2P(C)(C)=O)n1 [Form E, brigatinib]
Solid form after storage (XRPD) ([1]; several weeks at ambient temperature): may revert to Form A

COc1cc(N2CCC(N3CCN(C)CC3)CC2)ccc1Nc1ncc(Cl)c(Nc2ccccc2P(C)(C)=O)n1 [Form F, brigatinib]
Solid form after storage (XRPD) ([1]; heating or storage at ambient conditions for 8 weeks): desolvated to give Form A

COc1cc(N2CCC(N3CCN(C)CC3)CC2)ccc1Nc1ncc(Cl)c(Nc2ccccc2P(C)(C)=O)n1 [Form G, brigatinib]
Solid form after storage (XRPD) ([1]; ambient conditions for 5 weeks): had transformed to Form A

COc1cc(N2CCC(N3CCN(C)CC3)CC2)ccc1Nc1ncc(Cl)c(Nc2ccccc2P(C)(C)=O)n1 [Form H, brigatinib]
Solid form after storage (XRPD) ([1]; ambient conditions for 1-3 weeks): had partially transformed to Form A

COc1cc(N2CCC(N3CCN(C)CC3)CC2)ccc1Nc1ncc(Cl)c(Nc2ccccc2P(C)(C)=O)n1 [Forms A+J, brigatinib]
Solid form after storage (XRPD) ([1]; mixture of Forms A+J, ambient conditions for 3 weeks): still a mixture of Forms A+J

COc1cc(N2CCC(N3CCN(C)CC3)CC2)ccc1Nc1ncc(Cl)c(Nc2ccccc2P(C)(C)=O)n1 [Forms A+K, brigatinib]
Solid form after storage (XRPD) ([1]; mixture of Forms A+K, ambient conditions for 3 weeks): still a mixture of Forms A+K

COc1cc(N2CCC(N3CCN(C)CC3)CC2)ccc1Nc1ncc(Cl)c(Nc2ccccc2P(C)(C)=O)n1 [amorphous brigatinib]
Form dry (XRPD) ([4]; Chloroform vapors, no solids after 2 weeks): A + Am
Form dry (XRPD) ([4]; Dichloromethane vapors, no solids after 2 weeks): Am
Form dry (XRPD) ([4]; Water vapors): A + B + C

— patent US11427605B2, “Crystalline forms of 5-chloro-N4-[-2-(dimethylphosphoryl) phenyl]-N2-{2-methoxy-4-[4-(4-methylpiperazin-1-yl) piperidin-1-yl] phenyl} pyrimidine-2,4-diamine” (ARIAD Pharmaceuticals, Inc., priority 2014, dated 2022)
